# Calls of active or inactive are those of the source. The calls are words filed in the database; no cut-off is given here. Numbered stars: 1 amine (or outer) side, 2 acyl side, 3 side chain; on linkers, the order of the positions; unused ones are H or OH. Square brackets hold non-standard residues; d marks the D form. Peptide text beside a SMILES is read from it. * marks the point of attachment. X3 = CC(C)C[C@@H](CN(CC(N)=O)S(=O)(=O)c1ccc(C(F)(F)F)cc1)N*; X2 = CC(C)C[C@H](N)CN(CC(=O)[*:2])[*:1]; X1 = O=S(=O)(c1ccc(C(F)(F)F)cc1)*
# Key:
# Escherichia coli = experiment: Antimicrobial activity against Escherichia coli ATCC 25922 assessed as inhibition of visible bacterial growth incubated for 18 hrs by broth-dilution method; type: functional
# Pseudomonas aeruginosa [1] = experiment: Antimicrobial activity against Pseudomonas aeruginosa ATCC 27853 assessed as inhibition of visible bacterial growth incubated for 18 hrs by broth-dilution method; type: functional
# Acinetobacter baumannii = experiment: Antimicrobial activity against Acinetobacter baumannii ATCC 19606 assessed as inhibition of visible bacterial growth incubated for 18 hrs by broth-dilution method; type: functional
# Staphylococcus aureus [2] = experiment: Antimicrobial activity against Staphylococcus aureus ATCC 25923 assessed as inhibition of visible bacterial growth incubated for 18 hrs by broth-dilution method; type: functional
# [3] = test system: Staphylococcus epidermidis; experiment: Antimicrobial activity against Staphylococcus epidermidis ATCC 12228 assessed as inhibition of visible bacterial growth incubated for 18 hrs by broth-dilution method; type: functional
# Bacillus subtilis = experiment: Antimicrobial activity against Bacillus subtilis ATCC 23857 assessed as inhibition of visible bacterial growth incubated for 18 hrs by broth-dilution method; type: functional
# Pseudomonas aeruginosa [4] = experiment: Antimicrobial activity against multidrug-resistant Pseudomonas aeruginosa 061 assessed as inhibition of visible bacterial growth incubated for 18 hrs by broth-dilution method; type: functional
# Pseudomonas aeruginosa [5] = experiment: Antimicrobial activity against multidrug-resistant Pseudomonas aeruginosa 119 assessed as inhibition of visible bacterial growth incubated for 18 hrs by broth-dilution method; type: functional
# Pseudomonas aeruginosa [6] = experiment: Antimicrobial activity against multidrug-resistant Pseudomonas aeruginosa 124 assessed as inhibition of visible bacterial growth incubated for 18 hrs by broth-dilution method; type: functional
# Staphylococcus aureus [7] = experiment: Antimicrobial activity against methicillin-resistant Staphylococcus aureus 8 assessed as inhibition of visible bacterial growth incubated for 18 hrs by broth-dilution method; type: functional
# Staphylococcus aureus [8] = experiment: Antimicrobial activity against methicillin-resistant Staphylococcus aureus 9 assessed as inhibition of visible bacterial growth incubated for 18 hrs by broth-dilution method; type: functional
# Staphylococcus aureus [9] = experiment: Antimicrobial activity against methicillin-resistant Staphylococcus aureus 10 assessed as inhibition of visible bacterial growth incubated for 18 hrs by broth-dilution method; type: functional
# Erythrocyte = experiment: Hemolytic activity against mouse Red blood cell incubated for 1 hr; type: toxicity, cell-based
# Staphylococcus aureus [10] = experiment: Antimicrobial activity against Staphylococcus aureus ATCC 25923 assessed as reduction in bacterial growth in presence of Ca2+; type: functional
# Staphylococcus aureus [11] = experiment: Antimicrobial activity against Staphylococcus aureus ATCC 25923 assessed as reduction in bacterial growth in presence of human serum; type: functional
# Staphylococcus aureus [12] = experiment: Antimicrobial activity against Staphylococcus aureus ATCC 25923 assessed as fold increase in MIC in presence of human serum; type: functional
# Staphylococcus aureus [13] = experiment: Antibiofilm activity against methicillin-resistant Staphylococcus aureus ATCC 33591 assessed as inhibition of biofilm formation at 4 to 8 microg/ml incubated for 24 hrs by crystal violet staining based analysis; type: functional; details: dose 4-8 µg/ml, at 4 to 8 µg/mL
# Pseudomonas aeruginosa [14] = experiment: Antibiofilm activity against Pseudomonas aeruginosa ATCC 27853 assessed as inhibition of biofilm formation at 4 to 8 microg/ml incubated for 24 hrs by crystal violet staining based analysis; type: functional; details: dose 4-8 µg/ml, at 4 to 8 µg/mL
# Staphylococcus aureus [15] = experiment: Antibiofilm activity against methicillin-resistant Staphylococcus aureus ATCC 33591 assessed as biofilm thickness at 1 times MIC90 incubated for 24 hrs by confocal laser scanning microscopic analysis; type: functional
# Staphylococcus aureus [16] = experiment: Synergistic antibacterial activity against Staphylococcus aureus ATCC 33591 assessed as fractional inhibitory concentration index in presence of polymyxin B by checkerboard assay; type: functional
# Staphylococcus aureus [17] = experiment: Antimicrobial activity against Staphylococcus aureus ATCC 33591 at 1 times MIC incubated for 18 hrs in presence of LPS/LTA; type: functional, organism-based
# Pseudomonas aeruginosa [18] = experiment: Induction of intracellular ROS accumulation in Pseudomonas aeruginosa ATCC 27853 by DCFH-DA dye based fluorescence assay; type: functional, organism-based
# Pseudomonas aeruginosa [19] = experiment: Bactericidal activity against Pseudomonas aeruginosa ATCC 27853 assessed as reduction in viable bacteria at 4 times MIC measured for 1 min by time-kill assay; type: functional, organism-based
# Staphylococcus aureus [20] = experiment: Antibacterial activity against […] Staphylococcus aureus ATCC 33591; type: functional, organism-based
# Staphylococcus aureus [21] = experiment: Additive antibacterial activity against Staphylococcus aureus ATCC 33591 assessed as fractional inhibitory concentration index in presence of polymyxin B by checkerboard assay; type: functional
# Pseudomonas aeruginosa [22] = experiment: Additive antibacterial activity against multidrug-resistant Pseudomonas aeruginosa 124 assessed as fractional inhibitory concentration index in presence of polymyxin B by checkerboard assay; type: functional
# Pseudomonas aeruginosa [23] = experiment: Additive antibacterial activity against multidrug-resistant Pseudomonas aeruginosa 124 assessed as fractional inhibitory concentration index in presence of ceftazidime by checkerboard assay; type: functional
# Staphylococcus aureus [24] = experiment: Synergistic antibacterial activity against methicillin-resistant Staphylococcus aureus S5 assessed as fractional inhibitory concentration index in presence of vancomycin by checkerboard assay; type: functional
# Cell membrane [25] = experiment: Induction of membrane disruption in Pseudomonas aeruginosa ATCC 27853 assessed as membrane shrinkage at 2 to 4 times MIC incubated for 24 hrs by SEM analysis; type: cell membranes
# Cell membrane [26] = experiment: Induction of membrane disruption in Staphylococcus aureus ATCC 33591 assessed as membrane shrinkage at 2 to 4 times MIC incubated for 24 hrs by SEM analysis; type: cell membranes
# Cell membrane [27] = experiment: Induction of membrane disruption in Staphylococcus aureus ATCC 33591 assessed as membrane blebbing at 2 to 4 times MIC incubated for 24 hrs by SEM analysis; type: cell membranes
# [28] = Toxicity in mouse at 40 mg/kg, sc measured for 5 to 1440 mins; type: organism-based; details: in vivo, time 5-1440 min
# [29] = Toxicity in mouse assessed as skin injury at 40 mg/kg, sc measured for 5 to 1440 mins by H and E staining analysis; type: organism-based; details: in vivo, time 5-1440 min
# [30] = Toxicity in mouse assessed as lung lesion at 20 mg/kg, ip measured for 30 to 60 mins by H and E staining based analysis; type: organism-based; details: in vivo, time 30-60 min
# Pseudomonas aeruginosa [31] = experiment: Antibacterial activity against Pseudomonas aeruginosa ATCC 27853 infected in C57BL/6 mouse pneumonia model assessed as log reduction in bacterial load in lung at 5 mg/kg, ip administered for 1 to 48 hrs and measured after 3 days; type: functional; details: time 1-120 hrs
# Pseudomonas aeruginosa [32] = experiment: Antibacterial activity against Pseudomonas aeruginosa ATCC 27853 infected in C57BL/6 mouse pneumonia model assessed as reduction in bacterial load in lung at 10 mg/kg, ip administered for 1 to 48 hrs and measured after 3 days; type: functional, organism-based; details: time 1-120 hrs
# Pseudomonas aeruginosa [33] = experiment: Antibacterial activity against Pseudomonas aeruginosa ATCC 27853 infected in C57BL/6 mouse pneumonia model assessed as decrease in TNF-alpha level in lung at 2.5 to 10 mg/kg, ip administered for 1 to 48 hrs and measured after 3 days; type: functional, organism-based; details: dose 2.5-10 mg/kg, time 1-120 hrs
# Pseudomonas aeruginosa [34] = experiment: Antibacterial activity against Pseudomonas aeruginosa ATCC 27853 infected in C57BL/6 mouse pneumonia model assessed as decrease in IL-6 level in lung at 2.5 to 10 mg/kg, ip administered for 1 to 48 hrs and measured after 3 days; type: functional, organism-based; details: dose 2.5-10 mg/kg, time 1-120 hrs
# Staphylococcus aureus [35] = experiment: Antibacterial activity against methicillin-resistant Staphylococcus aureus ATCC 33591 infected in full-thickness wound BALB/c mouse model assessed as reduction in inflammatory infiltration at 1 mg/kg, ip administered for 1 to 48 hrs and measured after 3 days; type: functional, organism-based; details: time 1-120 hrs
smiles,measurement,setting,value
CC(C)C[C@@H](CN(CC(N)=O)S(=O)(=O)c1ccc(C(F)(F)F)cc1)NC(=O)[C@H](CCCCN)NC(=O)[C@H](CCCCN)NC(=O)[C@H](CC(C)C)NC(=O)[C@H](CC(C)C)NC(=O)[C@H](CCCCN)NC(=O)[C@H](CC(C)C)NC(=O)[C@@H](N)Cc1ccccc1 (H-FLKLLKK-X3),MIC,Escherichia coli,16 mg/L
same,MIC,Pseudomonas aeruginosa [1],8 mg/L
same,MIC,Acinetobacter baumannii,16 mg/L
same,MIC,Staphylococcus aureus [2],4 mg/L
same,MIC,[3],4 mg/L
same,MIC,Bacillus subtilis,4 mg/L
same,MIC,Pseudomonas aeruginosa [4],8 mg/L
same,MIC,Pseudomonas aeruginosa [5],8 mg/L
same,MIC,Pseudomonas aeruginosa [6],8 mg/L
same,MIC,Staphylococcus aureus [7],4 mg/L
same,MIC,Staphylococcus aureus [8],8 mg/L
same,MIC,Staphylococcus aureus [9],8 mg/L
same,MHC,Erythrocyte,256 µg/mL
same,MIC,Staphylococcus aureus [10],32 mg/L
same,MIC,Staphylococcus aureus [11],8 mg/L
same,fold change (FC),Staphylococcus aureus [12],2
same,inhibition (INH),Staphylococcus aureus [13],50%
same,inhibition (INH),Pseudomonas aeruginosa [14],50%
same,Activity,Staphylococcus aureus [15],40 um
same,fractional inhibitory concentration index (FICI),Staphylococcus aureus [16],0.5
same,Activity,Staphylococcus aureus [17],inactive
same,Activity,Pseudomonas aeruginosa [18],Active
CC(C)C[C@H](N)CN(CC(=O)N[C@@H](CCCCN)C(=O)N[C@@H](CC(C)C)C(=O)N[C@@H](CC(C)C)C(=O)N[C@@H](CCCCN)C(=O)N[C@@H](CCCCN)C(=O)N[C@@H](CC(C)C)C(=O)N[C@@H](CC(C)C)C(N)=O)S(=O)(=O)c1ccc(C(F)(F)F)cc1 (X1-[X2]KLLKKLL-NH2),MIC,Escherichia coli,16 mg/L
same,MIC,Pseudomonas aeruginosa [1],4 mg/L
same,MIC,Acinetobacter baumannii,16 mg/L
same,MIC,Staphylococcus aureus [2],4 mg/L
same,MIC,[3],4 mg/L
same,MIC,Bacillus subtilis,4 mg/L
same,MIC,Pseudomonas aeruginosa [4],8 mg/L
same,MIC,Pseudomonas aeruginosa [5],8 mg/L
same,MIC,Pseudomonas aeruginosa [6],4 mg/L
same,MIC,Staphylococcus aureus [7],4 mg/L
same,MIC,Staphylococcus aureus [8],8 mg/L
same,MIC,Staphylococcus aureus [9],8 mg/L
same,MHC,Erythrocyte,256 µg/mL
same,MIC,Staphylococcus aureus [10],32 mg/L
same,MIC,Staphylococcus aureus [11],8 mg/L
same,fold change (FC),Staphylococcus aureus [12],2
same,inhibition (INH),Staphylococcus aureus [13],50%
same,inhibition (INH),Pseudomonas aeruginosa [14],50%
same,Activity,Staphylococcus aureus [15],40 um
same,Activity,Pseudomonas aeruginosa [19],Active
same,Activity,Staphylococcus aureus [20],Active
same,fractional inhibitory concentration index (FICI),Staphylococcus aureus [21],1
same,fractional inhibitory concentration index (FICI),Pseudomonas aeruginosa [22],0.5
same,fractional inhibitory concentration index (FICI),Pseudomonas aeruginosa [23],1
same,fractional inhibitory concentration index (FICI),Staphylococcus aureus [24],2
same,Activity,Staphylococcus aureus [17],inactive
same,Activity,Cell membrane [25],Active
same,Activity,Cell membrane [26],Active
same,Activity,Cell membrane [27],Active
same,Activity,Pseudomonas aeruginosa [18],Active
same,Activity,[28],Non-Toxic
same,Activity,[29],Non-Toxic
same,Activity,[30],Non-Toxic
same,log(activity),Pseudomonas aeruginosa [31],4.51
same,Activity,Pseudomonas aeruginosa [32],Active
same,Activity,Pseudomonas aeruginosa [33],Active
same,Activity,Pseudomonas aeruginosa [34],Active
same,Activity,Staphylococcus aureus [35],Active

# — ChEMBL document CHEMBL5537135, “Novel antimicrobial peptides modified with fluorinated sulfono-γ-AA having high stability and targeting multidrug-resistant bacteria infections” (Eur J Med Chem, 2024)
